tested on: TK-10; assay: Cytotoxicity against human TK10 cells assessed as effect on cell growth at 10 uM incubated for 48 hrs by sulforhodamine B assay; type: cell-based; conditions: tk-10, 48 h

Row | SMILES | Activity
1 | CN(C)/C=C1\C[C@@H](C(=O)NCc2ccc(Cl)cc2Cl)N(c2cccs2)C1=O | Non-Toxic
2 | O=C1N[C@H](C(=O)NCc2ccc(Cl)cc2Cl)C/C1=C/NCc1ccc(Cl)cc1Cl | Non-Toxic
3 | O=C(NCC1CCCCC1)[C@@H]1CCC(=O)N1c1ccccc1 | Non-Toxic

tested on: MDA-MB-468; assay: Cytotoxicity against human MDA-MB-468 cells assessed as effect on cell growth at 10 uM incubated for 48 hrs by sulforhodamine B assay; type: cell-based; conditions: mda-mb-468, 48 h

Row | SMILES | Activity
4 | CN(C)/C=C1\C[C@@H](C(=O)NCc2ccc(Cl)cc2Cl)N(c2cccs2)C1=O | Non-Toxic
5 | O=C1N[C@H](C(=O)NCc2ccc(Cl)cc2Cl)C/C1=C/NCc1ccc(Cl)cc1Cl | Non-Toxic
6 | O=C(NCC1CCCCC1)[C@@H]1CCC(=O)N1c1ccccc1 | Non-Toxic

tested on: HCC 2998; assay: Cytotoxicity against human HCC2998 cells assessed as effect on cell growth at 10 uM incubated for 48 hrs by sulforhodamine B assay; type: cell-based; conditions: hcc 2998, 48 h

Row | SMILES | Activity
7 | CN(C)/C=C1\C[C@@H](C(=O)NCc2ccc(Cl)cc2Cl)N(c2cccs2)C1=O | Non-Toxic
8 | O=C1N[C@H](C(=O)NCc2ccc(Cl)cc2Cl)C/C1=C/NCc1ccc(Cl)cc1Cl | Non-Toxic
9 | O=C(NCC1CCCCC1)[C@@H]1CCC(=O)N1c1ccccc1 | Non-Toxic

tested on: PC-3; assay: Cytotoxicity against human PC3 cells assessed as effect on cell growth at 10 uM incubated for 48 hrs by sulforhodamine B assay; type: cell-based; conditions: pc-3, 48 h

Row | SMILES | Activity
10 | CN(C)/C=C1\C[C@@H](C(=O)NCc2ccc(Cl)cc2Cl)N(c2cccs2)C1=O | Non-Toxic
11 | O=C1N[C@H](C(=O)NCc2ccc(Cl)cc2Cl)C/C1=C/NCc1ccc(Cl)cc1Cl | Non-Toxic
12 | O=C(NCC1CCCCC1)[C@@H]1CCC(=O)N1c1ccccc1 | Non-Toxic

tested on: HCT-116; assay: Cytotoxicity against human HCT116 cells assessed as effect on cell growth at 10 uM incubated for 48 hrs by sulforhodamine B assay; type: cell-based; conditions: hct-116, 48 h

Row | SMILES | Activity
13 | CN(C)/C=C1\C[C@@H](C(=O)NCc2ccc(Cl)cc2Cl)N(c2cccs2)C1=O | Non-Toxic
14 | O=C1N[C@H](C(=O)NCc2ccc(Cl)cc2Cl)C/C1=C/NCc1ccc(Cl)cc1Cl | Non-Toxic
15 | O=C(NCC1CCCCC1)[C@@H]1CCC(=O)N1c1ccccc1 | Non-Toxic

tested on: NCI-H322M; assay: Cytotoxicity against human NCI-H322M cells assessed as effect on cell growth at 10 uM incubated for 48 hrs by sulforhodamine B assay; type: cell-based; conditions: not given

Row | SMILES | Activity
16 | CN(C)/C=C1\C[C@@H](C(=O)NCc2ccc(Cl)cc2Cl)N(c2cccs2)C1=O | Non-Toxic
17 | O=C1N[C@H](C(=O)NCc2ccc(Cl)cc2Cl)C/C1=C/NCc1ccc(Cl)cc1Cl | Non-Toxic
18 | O=C(NCC1CCCCC1)[C@@H]1CCC(=O)N1c1ccccc1 | Non-Toxic

tested on: U-251; assay: Cytotoxicity against human U251 cells assessed as effect on cell growth at 10 uM incubated for 48 hrs by sulforhodamine B assay; type: cell-based; conditions: u-251, 48 h

Row | SMILES | Activity
19 | CN(C)/C=C1\C[C@@H](C(=O)NCc2ccc(Cl)cc2Cl)N(c2cccs2)C1=O | Non-Toxic
20 | O=C1N[C@H](C(=O)NCc2ccc(Cl)cc2Cl)C/C1=C/NCc1ccc(Cl)cc1Cl | Non-Toxic
21 | O=C(NCC1CCCCC1)[C@@H]1CCC(=O)N1c1ccccc1 | Non-Toxic

tested on: HT-29; assay: Cytotoxicity against human HT-29 cells assessed as effect on cell growth at 10 uM incubated for 48 hrs by sulforhodamine B assay; type: cell-based; conditions: ht-29, 48 h

Row | SMILES | Activity
22 | CN(C)/C=C1\C[C@@H](C(=O)NCc2ccc(Cl)cc2Cl)N(c2cccs2)C1=O | Non-Toxic
23 | O=C1N[C@H](C(=O)NCc2ccc(Cl)cc2Cl)C/C1=C/NCc1ccc(Cl)cc1Cl | Non-Toxic
24 | O=C(NCC1CCCCC1)[C@@H]1CCC(=O)N1c1ccccc1 | Non-Toxic

tested on: COLO 205; assay: Cytotoxicity against human COLO205 cells assessed as effect on cell growth at 10 uM incubated for 48 hrs by sulforhodamine B assay; type: cell-based; conditions: colo 205, 48 h

Row | SMILES | Activity
25 | CN(C)/C=C1\C[C@@H](C(=O)NCc2ccc(Cl)cc2Cl)N(c2cccs2)C1=O | Non-Toxic
26 | O=C1N[C@H](C(=O)NCc2ccc(Cl)cc2Cl)C/C1=C/NCc1ccc(Cl)cc1Cl | Non-Toxic
27 | O=C(NCC1CCCCC1)[C@@H]1CCC(=O)N1c1ccccc1 | Non-Toxic

tested on: NCI/ADR-RES; assay: Cytotoxicity against human NCI/ADR-RES cells assessed as effect on cell growth at 10 uM incubated for 48 hrs by sulforhodamine B assay; type: cell-based; conditions: not given

Row | SMILES | Activity
28 | CN(C)/C=C1\C[C@@H](C(=O)NCc2ccc(Cl)cc2Cl)N(c2cccs2)C1=O | Non-Toxic
29 | O=C1N[C@H](C(=O)NCc2ccc(Cl)cc2Cl)C/C1=C/NCc1ccc(Cl)cc1Cl | Non-Toxic
30 | O=C(NCC1CCCCC1)[C@@H]1CCC(=O)N1c1ccccc1 | Non-Toxic

tested on: NCI-H23; assay: Cytotoxicity against human NCI-H23 cells assessed as effect on cell growth at 10 uM incubated for 48 hrs by sulforhodamine B assay; type: cell-based; conditions: nci-h23, 48 h

Row | SMILES | Activity
31 | CN(C)/C=C1\C[C@@H](C(=O)NCc2ccc(Cl)cc2Cl)N(c2cccs2)C1=O | Non-Toxic
32 | O=C1N[C@H](C(=O)NCc2ccc(Cl)cc2Cl)C/C1=C/NCc1ccc(Cl)cc1Cl | Non-Toxic
33 | O=C(NCC1CCCCC1)[C@@H]1CCC(=O)N1c1ccccc1 | Non-Toxic

tested on: HOP-92; assay: Cytotoxicity against human HOP92 cells assessed as effect on cell growth at 10 uM incubated for 48 hrs by sulforhodamine B assay; type: cell-based; conditions: hop-92, 48 h

Row | SMILES | Activity
34 | CN(C)/C=C1\C[C@@H](C(=O)NCc2ccc(Cl)cc2Cl)N(c2cccs2)C1=O | Non-Toxic
35 | O=C1N[C@H](C(=O)NCc2ccc(Cl)cc2Cl)C/C1=C/NCc1ccc(Cl)cc1Cl | Non-Toxic
36 | O=C(NCC1CCCCC1)[C@@H]1CCC(=O)N1c1ccccc1 | Non-Toxic

tested on: NCI-H522; assay: Cytotoxicity against human NCI-H522 cells assessed as effect on cell growth at 10 uM incubated for 48 hrs by sulforhodamine B assay; type: cell-based; conditions: nci-h522, 48 h

Row | SMILES | Activity
37 | CN(C)/C=C1\C[C@@H](C(=O)NCc2ccc(Cl)cc2Cl)N(c2cccs2)C1=O | Non-Toxic
38 | O=C1N[C@H](C(=O)NCc2ccc(Cl)cc2Cl)C/C1=C/NCc1ccc(Cl)cc1Cl | Non-Toxic
39 | O=C(NCC1CCCCC1)[C@@H]1CCC(=O)N1c1ccccc1 | Non-Toxic

tested on: OVCAR-8; assay: Cytotoxicity against human OVCAR8 cells assessed as effect on cell growth at 10 uM incubated for 48 hrs by sulforhodamine B assay; type: cell-based; conditions: ovcar-8, 48 h

Row | SMILES | Activity
40 | CN(C)/C=C1\C[C@@H](C(=O)NCc2ccc(Cl)cc2Cl)N(c2cccs2)C1=O | Non-Toxic
41 | O=C1N[C@H](C(=O)NCc2ccc(Cl)cc2Cl)C/C1=C/NCc1ccc(Cl)cc1Cl | Non-Toxic
42 | O=C(NCC1CCCCC1)[C@@H]1CCC(=O)N1c1ccccc1 | Non-Toxic

tested on: SNB-19; assay: Cytotoxicity against human SNB19 cells assessed as effect on cell growth at 10 uM incubated for 48 hrs by sulforhodamine B assay; type: cell-based; conditions: snb-19, 48 h

Row | SMILES | Activity
43 | CN(C)/C=C1\C[C@@H](C(=O)NCc2ccc(Cl)cc2Cl)N(c2cccs2)C1=O | Non-Toxic
44 | O=C1N[C@H](C(=O)NCc2ccc(Cl)cc2Cl)C/C1=C/NCc1ccc(Cl)cc1Cl | Non-Toxic
45 | O=C(NCC1CCCCC1)[C@@H]1CCC(=O)N1c1ccccc1 | Non-Toxic

tested on: UACC-62; assay: Cytotoxicity against human UACC62 cells assessed as effect on cell growth at 10 uM incubated for 48 hrs by sulforhodamine B assay; type: cell-based; conditions: uacc-62, 48 h

Row | SMILES | Activity
46 | CN(C)/C=C1\C[C@@H](C(=O)NCc2ccc(Cl)cc2Cl)N(c2cccs2)C1=O | Non-Toxic
47 | O=C1N[C@H](C(=O)NCc2ccc(Cl)cc2Cl)C/C1=C/NCc1ccc(Cl)cc1Cl | Non-Toxic
48 | O=C(NCC1CCCCC1)[C@@H]1CCC(=O)N1c1ccccc1 | Non-Toxic

tested on: IGROV-1; assay: Cytotoxicity against human IGROV1 cells assessed as effect on cell growth at 10 uM incubated for 48 hrs by sulforhodamine B assay; type: cell-based; conditions: igrov-1, 48 h

Row | SMILES | Activity
49 | CN(C)/C=C1\C[C@@H](C(=O)NCc2ccc(Cl)cc2Cl)N(c2cccs2)C1=O | Non-Toxic
50 | O=C1N[C@H](C(=O)NCc2ccc(Cl)cc2Cl)C/C1=C/NCc1ccc(Cl)cc1Cl | Non-Toxic
51 | O=C(NCC1CCCCC1)[C@@H]1CCC(=O)N1c1ccccc1 | Non-Toxic

tested on: T47D; assay: Cytotoxicity against human T47D cells assessed as effect on cell growth at 10 uM incubated for 48 hrs by sulforhodamine B assay; type: cell-based; conditions: not given

Row | SMILES | Activity
52 | CN(C)/C=C1\C[C@@H](C(=O)NCc2ccc(Cl)cc2Cl)N(c2cccs2)C1=O | Non-Toxic
53 | O=C1N[C@H](C(=O)NCc2ccc(Cl)cc2Cl)C/C1=C/NCc1ccc(Cl)cc1Cl | Non-Toxic
54 | O=C(NCC1CCCCC1)[C@@H]1CCC(=O)N1c1ccccc1 | Non-Toxic

tested on: SNB-75; assay: Cytotoxicity against human SNB75 cells assessed as effect on cell growth at 10 uM incubated for 48 hrs by sulforhodamine B assay; type: cell-based; conditions: snb-75, 48 h

Row | SMILES | Activity
55 | CN(C)/C=C1\C[C@@H](C(=O)NCc2ccc(Cl)cc2Cl)N(c2cccs2)C1=O | Non-Toxic
56 | O=C1N[C@H](C(=O)NCc2ccc(Cl)cc2Cl)C/C1=C/NCc1ccc(Cl)cc1Cl | Non-Toxic
57 | O=C(NCC1CCCCC1)[C@@H]1CCC(=O)N1c1ccccc1 | Non-Toxic

tested on: Malme-3M; assay: Cytotoxicity against human MALME-3M cells assessed as effect on cell growth at 10 uM incubated for 48 hrs by sulforhodamine B assay; type: cell-based; conditions: not given

Row | SMILES | Activity
58 | CN(C)/C=C1\C[C@@H](C(=O)NCc2ccc(Cl)cc2Cl)N(c2cccs2)C1=O | Non-Toxic
59 | O=C1N[C@H](C(=O)NCc2ccc(Cl)cc2Cl)C/C1=C/NCc1ccc(Cl)cc1Cl | Non-Toxic
60 | O=C(NCC1CCCCC1)[C@@H]1CCC(=O)N1c1ccccc1 | Non-Toxic

From ChEMBL document CHEMBL4627246, “Pyroglutamide-Based P2X7 Receptor Antagonists Targeting Inflammatory Bowel Disease” (J Med Chem, 2020)
